Assay results reported in patent US20240189318A1, “THERAPEUTIC REGIMENS OF AN INHIBITOR OF THE ENZYMATIC ACTIVITY OF BRG1 AND BRM” (FOGHORN THERAPEUTICS INC., priority 2021, published 2024).
Where two headings read alike, the source gives them in different places.

Tests used:
[1] = system: Uveal melanoma cell lines, prostate cancer cells, acute leukemia cells, histocytic lymphoma cells; assay: 3-day growth inhibition, all cell lines of Table 6; assay type: cell-based; conditions: 3 days
OAT1 = molecular target: T1, OAT1 (Homo sapiens, UniProt Q4U2R8); assay: Transporter inhibition in MDCK-II cells, OAT1; assay type: in vitro ADME; conditions: for IC50: probe p-aminohippurate 2 μM
T1 construct: expressed in transfected cells; host or cells: MDCK-II
T1 sequence (Q4U2R8 1-563): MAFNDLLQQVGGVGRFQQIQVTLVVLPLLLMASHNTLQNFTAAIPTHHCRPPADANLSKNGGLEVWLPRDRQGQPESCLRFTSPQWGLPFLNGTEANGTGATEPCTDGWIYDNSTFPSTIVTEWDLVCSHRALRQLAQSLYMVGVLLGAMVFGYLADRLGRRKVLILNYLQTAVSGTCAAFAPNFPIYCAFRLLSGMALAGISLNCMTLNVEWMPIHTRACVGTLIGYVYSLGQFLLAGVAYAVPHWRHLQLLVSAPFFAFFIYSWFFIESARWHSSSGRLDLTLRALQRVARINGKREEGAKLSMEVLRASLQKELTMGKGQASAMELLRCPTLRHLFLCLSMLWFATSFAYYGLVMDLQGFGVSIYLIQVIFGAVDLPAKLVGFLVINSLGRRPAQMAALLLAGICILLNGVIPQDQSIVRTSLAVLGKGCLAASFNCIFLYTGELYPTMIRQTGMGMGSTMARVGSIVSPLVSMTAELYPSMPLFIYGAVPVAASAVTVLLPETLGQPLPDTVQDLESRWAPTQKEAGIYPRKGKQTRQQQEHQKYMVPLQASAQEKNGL

OATP1B3 = molecular target: T2, OATP1B3 (Homo sapiens, UniProt Q9NPD5); assay: Transporter inhibition in MDCK-II cells, OATP1B3; assay type: in vitro ADME; conditions: probe CCK-8 2 μM
T2 construct: expressed in transfected cells; host or cells: MDCK-II
T2 sequence (Q9NPD5 whole entry): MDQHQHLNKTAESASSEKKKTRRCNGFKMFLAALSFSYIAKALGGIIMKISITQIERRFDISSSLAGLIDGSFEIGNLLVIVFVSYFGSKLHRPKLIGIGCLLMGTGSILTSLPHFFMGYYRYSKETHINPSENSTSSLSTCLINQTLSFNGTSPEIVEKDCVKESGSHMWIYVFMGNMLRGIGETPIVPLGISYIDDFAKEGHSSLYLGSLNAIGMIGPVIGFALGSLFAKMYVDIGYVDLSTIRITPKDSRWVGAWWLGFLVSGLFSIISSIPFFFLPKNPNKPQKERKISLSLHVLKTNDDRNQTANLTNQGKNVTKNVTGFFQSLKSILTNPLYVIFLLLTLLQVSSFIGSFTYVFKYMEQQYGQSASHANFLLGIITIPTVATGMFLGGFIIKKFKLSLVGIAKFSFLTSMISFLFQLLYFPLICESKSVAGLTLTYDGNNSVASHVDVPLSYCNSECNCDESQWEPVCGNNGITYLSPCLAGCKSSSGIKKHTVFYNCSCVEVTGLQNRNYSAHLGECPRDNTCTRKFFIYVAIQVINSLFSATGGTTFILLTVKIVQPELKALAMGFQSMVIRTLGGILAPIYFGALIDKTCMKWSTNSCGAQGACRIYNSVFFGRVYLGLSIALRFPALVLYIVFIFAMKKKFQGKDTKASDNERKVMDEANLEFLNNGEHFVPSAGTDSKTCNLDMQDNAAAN

CYP3A4 = CYP3A4 (Homo sapiens, UniProt P08684); assay: Depletion by recombinant CYP enzyme, CYP3A4; assay type: in vitro ADME; conditions: recombinant 3A4
Sequence of CYP3A4 (P08684 whole entry): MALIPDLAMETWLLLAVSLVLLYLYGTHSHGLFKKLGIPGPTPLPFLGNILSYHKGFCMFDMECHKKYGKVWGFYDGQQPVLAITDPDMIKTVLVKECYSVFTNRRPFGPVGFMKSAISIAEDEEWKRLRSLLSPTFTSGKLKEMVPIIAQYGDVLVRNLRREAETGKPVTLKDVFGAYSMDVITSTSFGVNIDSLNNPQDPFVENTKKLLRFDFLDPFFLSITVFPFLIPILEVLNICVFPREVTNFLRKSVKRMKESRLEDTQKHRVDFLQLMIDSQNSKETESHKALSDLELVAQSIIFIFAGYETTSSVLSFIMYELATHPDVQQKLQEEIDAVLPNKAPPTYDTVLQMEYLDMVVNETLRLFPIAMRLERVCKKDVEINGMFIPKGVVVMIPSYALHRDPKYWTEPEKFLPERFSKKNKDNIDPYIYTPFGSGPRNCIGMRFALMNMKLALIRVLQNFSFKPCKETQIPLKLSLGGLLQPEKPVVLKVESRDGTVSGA

[2] = Depletion in Control Bactosomes and Reductase Control; assay type: in vitro ADME
CYP1A2 [3] = molecular target: T3, CYP1A2 (Homo sapiens, UniProt P05177); assay: Depletion by recombinant CYP enzyme, CYP1A2; assay type: in vitro ADME; design: from tissue; host or cells: pooled human liver microsomes; conditions: recombinant 1A2
T3 sequence (P05177 1-516): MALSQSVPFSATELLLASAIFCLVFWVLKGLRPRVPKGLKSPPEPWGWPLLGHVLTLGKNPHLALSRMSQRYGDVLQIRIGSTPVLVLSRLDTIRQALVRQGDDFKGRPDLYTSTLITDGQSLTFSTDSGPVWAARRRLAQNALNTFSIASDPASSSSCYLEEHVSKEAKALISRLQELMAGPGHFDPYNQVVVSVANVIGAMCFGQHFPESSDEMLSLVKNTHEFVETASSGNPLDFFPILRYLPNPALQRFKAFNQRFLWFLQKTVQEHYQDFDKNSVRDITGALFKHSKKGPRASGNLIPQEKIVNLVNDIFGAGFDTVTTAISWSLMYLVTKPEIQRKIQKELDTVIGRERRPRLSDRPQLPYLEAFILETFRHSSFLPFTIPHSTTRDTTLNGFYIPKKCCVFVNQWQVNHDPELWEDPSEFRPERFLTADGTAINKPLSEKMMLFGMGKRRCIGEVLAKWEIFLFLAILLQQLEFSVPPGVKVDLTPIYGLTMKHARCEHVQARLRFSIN

CYP2B6 = molecular target: T4, CYP2B6 (Homo sapiens, UniProt P20813); assay: Depletion by recombinant CYP enzyme, CYP2B6; assay type: in vitro ADME; design: from tissue; host or cells: pooled human liver microsomes; conditions: recombinant 2B6; 0.1 μM
T4 sequence (P20813 1-491): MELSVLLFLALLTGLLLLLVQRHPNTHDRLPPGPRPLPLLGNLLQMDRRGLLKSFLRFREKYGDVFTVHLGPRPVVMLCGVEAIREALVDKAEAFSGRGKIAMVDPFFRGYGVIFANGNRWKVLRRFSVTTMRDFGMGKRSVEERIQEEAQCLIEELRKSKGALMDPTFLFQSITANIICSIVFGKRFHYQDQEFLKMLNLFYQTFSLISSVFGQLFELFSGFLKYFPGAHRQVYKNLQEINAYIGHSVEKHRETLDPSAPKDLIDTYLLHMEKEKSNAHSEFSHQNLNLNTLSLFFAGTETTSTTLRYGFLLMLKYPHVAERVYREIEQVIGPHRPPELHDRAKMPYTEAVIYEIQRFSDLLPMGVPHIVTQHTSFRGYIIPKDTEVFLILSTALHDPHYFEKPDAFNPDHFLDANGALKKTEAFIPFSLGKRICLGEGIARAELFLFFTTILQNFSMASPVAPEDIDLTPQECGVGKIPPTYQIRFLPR

CYP2C19 = CYP2C19 (Homo sapiens, UniProt P33261); assay: Depletion by recombinant CYP enzyme, CYP2C19; assay type: in vitro ADME; design: from tissue; host or cells: pooled human liver microsomes; conditions: recombinant 2C19
Sequence of CYP2C19 (P33261 whole entry): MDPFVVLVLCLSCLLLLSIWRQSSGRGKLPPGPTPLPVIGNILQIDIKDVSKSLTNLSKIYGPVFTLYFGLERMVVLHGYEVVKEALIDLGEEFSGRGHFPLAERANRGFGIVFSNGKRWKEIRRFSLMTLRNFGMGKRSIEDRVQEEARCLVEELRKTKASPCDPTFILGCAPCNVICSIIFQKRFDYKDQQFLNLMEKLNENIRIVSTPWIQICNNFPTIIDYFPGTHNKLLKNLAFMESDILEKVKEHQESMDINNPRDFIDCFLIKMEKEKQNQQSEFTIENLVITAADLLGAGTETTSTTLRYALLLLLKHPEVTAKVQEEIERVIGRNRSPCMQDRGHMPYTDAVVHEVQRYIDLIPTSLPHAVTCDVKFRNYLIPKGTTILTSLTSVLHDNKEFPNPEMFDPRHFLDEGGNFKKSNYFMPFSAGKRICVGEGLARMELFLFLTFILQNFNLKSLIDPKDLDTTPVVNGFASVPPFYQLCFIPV

CYP2D6 = CYP2D6 (Homo sapiens, UniProt P10635); assay: Depletion by recombinant CYP enzyme, CYP2D6; assay type: in vitro ADME; design: from tissue; host or cells: pooled human liver microsomes; conditions: recombinant 2D6
Sequence of CYP2D6 (P10635 whole entry): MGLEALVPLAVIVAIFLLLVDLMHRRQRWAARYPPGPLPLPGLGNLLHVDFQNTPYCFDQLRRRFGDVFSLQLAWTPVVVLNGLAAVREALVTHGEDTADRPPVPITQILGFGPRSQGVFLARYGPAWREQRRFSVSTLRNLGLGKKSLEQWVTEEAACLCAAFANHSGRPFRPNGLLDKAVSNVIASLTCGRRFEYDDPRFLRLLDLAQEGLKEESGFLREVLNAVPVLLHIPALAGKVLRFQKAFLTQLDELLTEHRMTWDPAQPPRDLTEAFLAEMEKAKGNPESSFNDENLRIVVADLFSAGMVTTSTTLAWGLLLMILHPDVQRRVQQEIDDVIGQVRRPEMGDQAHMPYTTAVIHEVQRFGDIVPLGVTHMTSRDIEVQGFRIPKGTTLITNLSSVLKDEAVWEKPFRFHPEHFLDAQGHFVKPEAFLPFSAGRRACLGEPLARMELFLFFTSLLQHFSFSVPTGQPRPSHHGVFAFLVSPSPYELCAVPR

CYP1A2 [4] = molecular target: T3, CYP1A2; assay: CYP enzyme inhibition in pooled human liver microsomes, CYP1A2; conditions: for inhibition at 30 µM: human, microsomes, Enzyme activity (% inhibition), CYP1A2, probe Phenacetin
CYP2C9 = CYP2C9 (Homo sapiens, UniProt P11712); assay: CYP enzyme inhibition in pooled human liver microsomes, CYP2C9; conditions: for inhibition at 30 µM: human, microsomes, Enzyme activity (% inhibition), CYP2C9, probe Diclofenac
Sequence of CYP2C9 (P11712 whole entry): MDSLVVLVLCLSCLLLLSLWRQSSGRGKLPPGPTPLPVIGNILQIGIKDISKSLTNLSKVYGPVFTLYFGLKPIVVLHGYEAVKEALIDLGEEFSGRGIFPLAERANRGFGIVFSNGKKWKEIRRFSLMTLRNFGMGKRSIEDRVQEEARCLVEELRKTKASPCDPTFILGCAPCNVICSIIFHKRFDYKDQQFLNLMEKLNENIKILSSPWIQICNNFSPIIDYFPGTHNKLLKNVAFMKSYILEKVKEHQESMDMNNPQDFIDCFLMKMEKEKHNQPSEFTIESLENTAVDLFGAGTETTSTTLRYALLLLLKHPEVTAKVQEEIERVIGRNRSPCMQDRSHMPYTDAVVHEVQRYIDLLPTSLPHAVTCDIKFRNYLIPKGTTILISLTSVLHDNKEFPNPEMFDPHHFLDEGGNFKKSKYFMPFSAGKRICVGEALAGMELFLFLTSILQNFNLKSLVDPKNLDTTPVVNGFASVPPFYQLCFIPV

SBC-5 cells = assay: 10-day proliferation assay, negative control cells lacking BRG1 and BRM; conditions: Homo sapiens, SBC-5, 240 h, read-out: mean IC50, cell proliferation
[5] = PHLM, concentrations up to 30 μM
[6] = 30 Minutes Pre-incubation with NADPH, PHLM
[7] = 30 Minutes Pre-incubation without NADPH, PHLM

COC[C@H](NC(=O)c1ccn(S(C)(=O)=O)c1)C(=O)Nc1nc(-c2cccc(N3C[C@@H](C)O[C@@H](C)C3)n2)cs1 [compound of formula (I), N-((S)-1-((4-(6-(cis-2,6-dimethylmorpholino)pyridin-2-yl)thiazol-2-yl)amino)-3-methoxy-1-oxopropan-2-yl)-1-(methylsulfonyl)-1H-pyrrole-3-carboxamide]
growth inhibition in all the cell lines [1]: potent growth inhibition
IC50 (OAT1; OAT1, corrected for difference between measured and nominal concentrations, read-out: IC50 corrected for non-specific binding): > 11.8 µM
IC50 (OAT1; OAT1 in MDCK-II cells, read-out: Estimated IC50 using nominal concentrations): > 50 µM
inhibition toward OAT1 (OAT1; nominal test concentrations up to 50 μM): minimal inhibition
IC50 (OATP1B3; OATP1B3, corrected, read-out: IC50 corrected for non-specific binding): 2.68 µM
IC50 (OATP1B3; OATP1B3 in MDCK-II cells, read-out: Estimated IC50 using nominal concentrations): 11.4 µM
% Remaining of Compound of Formula (I) (CYP3A4; 0.1 μM): 0.0%
% Remaining of Compound of Formula (I) (CYP3A4; 1 μM): 1.2%
% Remaining of Compound of Formula (I) ([2]; Control Bactosomes, 0.1 μM): 90.2%
% Remaining of Compound of Formula (I) ([2]; Control Bactosomes, 1 μM): 98.3%
% Remaining of Compound of Formula (I) ([2]; Reductase Control, 0.1 μM): 78.3%
% Remaining of Compound of Formula (I) ([2]; Reductase Control, 1 μM): 109%
% Remaining of Compound of Formula (I) (CYP1A2 [3]; 0.1 μM): 89.4%
% Remaining of Compound of Formula (I) (CYP1A2 [3]; 1 μM): 113%
% Remaining of Compound of Formula (I) (CYP2B6): 85.3%
% Remaining of Compound of Formula (I) (CYP2C19; 0.1 μM): 80.5%
% Remaining of Compound of Formula (I) (CYP2C19; 1 μM): 95.0%
% Remaining of Compound of Formula (I) (CYP2D6; 0.1 μM): 85.0%
% Remaining of Compound of Formula (I) (CYP2D6; 1 μM): 93.5%
IC50 (CYP1A2 [4]): > 30 µM
direct inhibitory activity (% inhibition) toward CYP1A2 (CYP1A2 [4]; [5]): < 50%
inhibition at 30 µM (CYP1A2 [4]; [6]): 11.8%
inhibition at 30 µM (CYP1A2 [4]; [7]): 8.5%
inhibition at 30 µM (CYP1A2 [4]; No Pre-incubation, PHLM): 11.4%
IC50 (CYP2C9): > 30 µM
direct inhibitory activity (% inhibition) toward CYP2C9 (CYP2C9; [5]): < 50%
inhibition at 30 µM (CYP2C9; [6]): 43.5%
inhibition at 30 µM (CYP2C9; [7]): 29.5%
inhibition at 30 µM (CYP2C9; No Pre-incubation, PHLM): 47.1%
IC50 (SBC-5 cells): > 25 µM
